Measurements taken from BindingDB's records for doi:10.1021/jm060666p (University of Massachusetts Medical School, 2006).

Target: T1, Dimer of Gag-Pol polyprotein [491-589,Q496K] (Human immunodeficiency virus 1, UniProt P03369, Q496K)
T1 construct: 491-589
Test: Enzyme Inhibition Assay
Description: HIV-1 protease inhibitor activities were determined by the fluorescence resonance energy transfer (FRET) method. The energy transfer donor (EDANS) and acceptor (DABCYL) were labeled at two ends of peptide substrate to perform FRET. Fluorescence measurements were carried out on a fluorescence spectrophotometer. Excitation and emission wavelengths were set at 340 and 490 nm. Inhibitor binding dissociation constant Ki was obtained by nonlinear regression fitting to the plot of initial velocity as a function of inhibitor concentrations based on Morrison equation. The initial velocities were derived from the linear range of reaction curves.

Compound | Ki [nM]
COc1cccc(S(=O)(=O)N(C[C@H]2CCCO2)C[C@@H](O)[C@H](Cc2ccccc2)NC(=O)[C@@H]2CN(c3cccc(F)c3)C(=O)O2)c1 [(5S)-N-[(1S,2R)-1-Benzyl-2-hydroxy-3-[[(3-methoxyphenyl)-sulfonyl][(R)-(tetrahydro-2-furanyl)methyl]amino]propyl]-3-(3-fluorophenyl)-2-oxooxazolidine-5-carboxamide] | 150
COc1cccc(S(=O)(=O)N(C[C@H]2CCCO2)C[C@@H](O)[C@H](Cc2ccccc2)NC(=O)[C@@H]2CN(c3ccccc3)C(=O)O2)c1 [(5S)-N-[(1S,2R)-1-Benzyl-2-hydroxy-3-[[(3-methoxyphenyl)-sulfonyl][(R)-(tetrahydro-2-furanyl)methyl]amino]propyl]-2-oxo-3-phenyloxazolidine-5-carboxamide] | 42
